Like-named read-outs stand apart in the source and are kept apart here. Marks after values point to notes of the source that are not given here. Blank lines part the entries; values can stand above or below the compound they belong to.
Columns and labels:
[1] = Conductance measurements in water; assay type: physicochemical; conditions: for Ionic conductivity at infinite dilution of the anion, λA^−: from Λ^0m and λH^+ = 349.8
Description: H^+ (aq) + A^− (aq) ⇌ HA (aq)(1)
The ion-pair formation constant for the process described by Equation (1) is expressed in terms of activities, a, as shown in Equation (2): (2) Kip=aHA/aH^+∗aA^−=HA∗γHA/H^+∗[A^−]∗γ±i^2
The conductivity cell constant was determined by the method of Jones and Bradshaw [39] as previously reported [24]. Conductance measurements were performed using the Wayne Kerr Autobalance Universal Bridge, type B642, and the Wayne Kerr Model 7330 Automatic LCR Meter Conductivity Bridge at a frequency of 1 Hz. […] Conductance readings at 298.15 K were recorded after each addition.

[2] = Calorimetric enthalpies of solution in water; assay type: physicochemical; conditions: 298.15 K; for ΔsH^0, standard enthalpy of solution: average of the ΔsH values
Excerpt: No measurements could be carried out at higher concentrations since the dissolution rate of this compound in water was relatively slow. […] Since there were no systematic changes in the ΔsH values with changes in the concentration of solute, the standard ΔsH^0 value reported in Table 3 is the average value. In the dissolution of a solute in water or any other solvent, there are two processes involved, as described in Equation (5):ΔsH^0 = ΔclH^0 + ΔsolvH^0(5)
(§1) The reliability of the calorimeter was checked by carrying out the standard reaction based on the protonation of an aqueous solution of tris-(hydroxymethyl)aminomethane (THAM) with an aqueous solution of hydrochloric acid (0.1 mol dm^−3) at 298.15 K (Equation (11)). H2NC(CH2OH)3(aq) + H3O+ (aq) → H3N+C(CH2OH)3(aq) + H2O(aq)(11)
(§2) The system was then placed in a water bath until thermal equilibrium was attained, after which the ampoule was broken into the solvent and the process was monitored by the chart recorder. The observed heat was corrected for the heat of the breaking of the empty ampoule in the solvent. The standard enthalpy of the solution, ∆sH^0, was found from […].

[3] = Calorimetric enthalpies of solution in DMF; assay type: physicochemical; conditions: 298.15 K; for ΔsH^0, standard enthalpy of solution: average of the ΔsH values
Excerpt: All observed heats were corrected for the heat from breaking the empty ampoules in DMF (Q = −0.0518 J). Since there were no systematic changes in the ΔsH values with changes in the concentration of the solute, the reported standard ΔsH^0 values are the average values of the data reported in Table 5. This table also includes the standard deviations of the data.
as §1, §2

[4] = Gibbs free energy and entropies of solution in water, corrected for ion-pair formation; assay type: physicochemical; conditions: 298.15 K; for pKsp: corrected for ion-pair formation; for ΔsG^0, standard Gibbs energy of solution: standard state 1 mol dm^−3
Excerpt: In Equation (2), concentrations are in mol dm^−3, and γ ± i^2 is the mean molar ionic coefficient calculated by the use of the Debye–Hückel equation, where γHA is the activity coefficient of the un-ionized species. In very dilute solutions, γHA may be considered equal to unity. As far as the standard Gibbs energy of the solution in the standard state of 1 mol dm^−3, ∆sG^0, is concerned, the application of Equation (3) requires knowledge of the ion-pair formation constant in solution. The availability of Kip and solubilities in water allows the calculation the ionic molar concentration, ci, and the molar concentration of ion pairs, cip, as previously shown. The data refer to the standard state (1 mol dm^−3). ΔsG^0= −RTln (ci^2 * γ±i^2)(3)
In Equation (6), aH^+ and aA^− represent the activities of the species H^+ and A^− in solution respectively. The activity of the solid is unity by convention. The activity, a, on the molar scale (mol dm^−3) is related to the ionic molar concentration, ci, by the mean molar ionic activity coefficient, γ ± i.
Thus:K^0sp = ci^2 ∗ γ ± i^2 (7)
The availability of Gibbs energy (Equation (3)) and enthalpy values allows the calculation of the entropy of solution, ΔsS. For this purpose, the following equation was used.

[5] = Transfer thermodynamic parameters from water to DMF; assay type: physicochemical; conditions: 298.15 K
Excerpt: As mentioned earlier, ΔsH^0 is made by the contribution of the crystal lattice enthalpy and the solvation enthalpy. In order to remove the contribution of the crystal lattice process, it is a common practice to calculate the transfer thermodynamic parameters according to the following process: […]

[6] = Solvate formation test in a solvent-saturated atmosphere; assay type: physicochemical; conditions: water
Description: (§3) The mixtures were left in a thermostatic bath at 298.15 K until equilibrium was reached. Aliquots of the saturated solutions were removed and analyzed gravimetrically by taking a known volume of sample, evaporating the solvent and then weighing the solid in a dry atmosphere. The weighing process was repeated until a constant weight was obtained. The analytical determination was carried out in triplicate on the same equilibrium mixture. Solvate formation was tested by storing the compounds over water or DMF in a desiccator containing an atmosphere saturated with the appropriate solvent over a period of at least four days.

[7] = water, same temperature, conductimetry; cited from earlier work
[8] = Solubility measurements (gravimetric analysis of saturated solutions) in water; assay type: physicochemical
Description: as §3

[9] = Conductance measurements in DMF; assay type: physicochemical; conditions: 298.15 K
Description: Conductance measurements were performed using the Wayne Kerr Autobalance Universal Bridge, type B642, and the Wayne Kerr Model 7330 Automatic LCR Meter Conductivity Bridge at a frequency of 1 Hz. […] Conductance readings at 298.15 K were recorded after each addition.

[10] = Interaction of acetylsalicylic acid with β-cyclodextrin in DMF (titration calorimetry); assay type: binding; conditions: nonionized guest, 298 K
Description: For deriving the thermodynamic parameters of the interaction of cyclodextrin and these pharmaceuticals in these solvents, the four-channel microcalorimeter was used.
The latter was added from a 2 cm^3 burette connected by a silicone tube to the reaction vessel after thermal equilibrium was reached. These experiments were carried out in duplicate. For each solvent, blank experiments were performed to account for the dilution effects resulting from the addition of the appropriate anion salt to the solvent placed in the calorimetric vessel.

[11] = water, cited from earlier work
[12] = water; cited from earlier work
[13] = set-up: method as in PMID 16509753; conditions: water, 298 K, cited from earlier work

Ionic conductivity at infinite dilution of the anion, λA^− ([1]; water, 298.15 K): 42.2 S cm^2 mol^−1
Structure (SMILES): CC(=O)Oc1ccccc1C(=O)O [acetylsalicylate]

Solubility, S [8]: (2.20 ± 0.28) ∗ 10^−2 mol dm^−3
Ka, dissociation constant ([1]; water, 298.15 K): 1.75 × 10^−4
Kip, ion-pair formation constant ([1]; water, 298.15 K): 57 × 10^2
Λ^0m, molar conductance at infinite dilution ([1]; water, 298.15 K): 392 S cm^2 mol^−1
Fraction hydrolyzed at the end of the conductance measurements ([1]; water, estimated from data of Pierre and Jencks [25]): 5%
Speciation in solution from conductance [9]: undissociated
ΔsH^0, standard enthalpy of solution ([2]; listed as Acetylsalicylic Acid): ΔsH^0 = 11.1 ± 0.6 kJ mol^−1
ΔsH^0, standard enthalpy of solution ([2]; listed as Acetylsalicylic acid): 2.65 kcal/mol
ΔsH, enthalpy of solution ([2]; c = 2.40 × 10^−4 mol dm^−3): 2.823 kcal/mol
ΔsH, enthalpy of solution ([2]; c = 3.51 × 10^−4 mol dm^−3): 2.5 kcal/mol
ΔsH, enthalpy of solution ([2]; c = 4.66 × 10^−4 mol dm^−3): 2.44 kcal/mol
ΔsH, enthalpy of solution ([2]; c = 5.13 × 10^−4 mol dm^−3): 2.646 kcal/mol
ΔsH, enthalpy of solution ([2]; c = 5.26 × 10^−4 mol dm^−3): 2.686 kcal/mol
ΔsH, enthalpy of solution ([2]; c = 5.99 × 10^−4 mol dm^−3): 2.799 kcal/mol
ΔsH^0, standard enthalpy of solution [3]: 1.86 ± 0.048 kcal/mol
ΔsH, enthalpy of solution ([3]; c = 1.10 × 10^−3 mol dm^−3): 1.79 kcal/mol
ΔsH, enthalpy of solution ([3]; c = 1.48 × 10^−3 mol dm^−3): 1.8 kcal/mol
ΔsH, enthalpy of solution ([3]; c = 5.74 × 10^−4 mol dm^−3): 1.96 kcal/mol
ΔsH, enthalpy of solution ([3]; c = 6.42 × 10^−4 mol dm^−3): 1.87 kcal/mol
ΔsH, enthalpy of solution ([3]; c = 8.62 × 10^−4 mol dm^−3): 1.84 kcal/mol
ΔsH, enthalpy of solution ([3]; c = 9.10 × 10^−4 mol dm^−3): 1.87 kcal/mol
ΔsS^0, entropy of solution [4]: −67 J K^−1 mol^−1
pKsp [4]: 5.45
ΔsG^0, standard Gibbs energy of solution [4]: 7.43 kcal/mol
ΔtH^0, enthalpy of transfer [5]: -0.789 kcal/mol
Solvate formation [6]: not detected
Structure (SMILES): CC(=O)Oc1ccccc1C(=O)O [acetylsalicylic acid, reference compound]
log Kass [10]: 4.66 ± 0.03 ^b
Solubility (literature, molar scale) ([11]; 299.65 K): 2.31 × 10^−2 mol dm^−3
Solubility (literature) [11]: 1.78 × 10^−2 mol/dm^−3
Apparent enthalpy of solution (literature, van ’t Hoff equation) [12]: 5.47 kcal/mol
log Kass ([13]; pH 1.75, nonionized guest, calculated from Kass of ref 15): 2.74 ^a
log Ks ([13]; pH 6.00, ionized guest, calculated from Ks of ref 15): 1.71 ^a

Further lines, the compound ahead of its results:

Structure (SMILES): CC(=O)Oc1ccc(C(=O)O)cc1 [4-acetoxybenzoic acid]
Ka, dissociation constant ([1]; water, 298.15 K): 4.55 × 10^−5
Kip, ion-pair formation constant ([1]; water, 298.15 K): 22 × 10^3
Λ^0m, molar conductance at infinite dilution ([1]; water, 298.15 K): 401 S cm^2 mol^−1
pKa ([1]; water, 298.15 K, conductance, read-out: pKa): 4.34
ΔsH^0, standard enthalpy of solution [2]: 4.78 kcal/mol
ΔsH^0, standard enthalpy of solution ([2]; listed as 4-Acetoxybenzoic Acid): ΔsH^0 = 20 ± 1 kJ mol^−1
ΔsH, enthalpy of solution ([2]; c = 4.51 × 10^−4 mol dm^−3): 4.52 kcal/mol
ΔsH, enthalpy of solution ([2]; c = 4.57 × 10^−4 mol dm^−3): 4.381 kcal/mol
ΔsH, enthalpy of solution ([2]; c = 4.66 × 10^−4 mol dm^−3): 4.84 kcal/mol
ΔsH, enthalpy of solution ([2]; c = 4.90 × 10^−4 mol dm^−3): 4.902 kcal/mol
ΔsH, enthalpy of solution ([2]; c = 6.17 × 10^−4 mol dm^−3): 4.928 kcal/mol
ΔsH, enthalpy of solution ([2]; c = 6.75 × 10^−4 mol dm^−3): 5.017 kcal/mol
ΔsH^0, standard enthalpy of solution [3]: 0.932 ± 0.024 kcal/mol
ΔsH, enthalpy of solution ([3]; c = 1.03 × 10^−3 mol dm^−3): 0.93 kcal/mol
ΔsH, enthalpy of solution ([3]; c = 1.18 × 10^−3 mol dm^−3): 0.98 kcal/mol
ΔsH, enthalpy of solution ([3]; c = 1.26 × 10^−3 mol dm^−3): 0.949 kcal/mol
ΔsH, enthalpy of solution ([3]; c = 1.60 × 10^−3 mol dm^−3): 0.954 kcal/mol
ΔsH, enthalpy of solution ([3]; c = 1.82 × 10^−3 mol dm^−3): 0.908 kcal/mol
ΔsS^0, entropy of solution [4]: −58 J K^−1 mol^−1
pKsp [4]: 6.57
ΔsG^0, standard Gibbs energy of solution [4]: 8.96 kcal/mol
ΔtH^0, enthalpy of transfer [5]: -3.85 kcal/mol
Solvate formation [6]: not detected
pKa (literature) [7]: 4.38

Structure (SMILES): CC(=O)c1ccc(O)c(C(=O)O)c1 [5-acetylsalicylate]
Ionic conductivity at infinite dilution of the anion, λA^− ([1]; water, 298.15 K): 39.2 S cm^2 mol^−1

Structure (SMILES): CC(=O)c1ccc(O)c(C(=O)O)c1 [5-acetylsalicylic acid]
Solubility, S [8]: (3.46 ± 0.22) ∗ 10^−3 mol dm^−3
pKa [1]: 3.04
Ka, dissociation constant ([1]; water, 298.15 K): 9.09 × 10^−4
Kip, ion-pair formation constant ([1]; water, 298.15 K): 11 × 10^2
Λ^0m, molar conductance at infinite dilution ([1]; water, 298.15 K): 389 S cm^2 mol^−1
ΔsH^0, standard enthalpy of solution [2]: 6.74 kcal/mol
ΔsH^0, standard enthalpy of solution ([2]; listed as 5-Acetylsalicylic Acid): ΔsH^0 = 28.2 ± 0.3 kJ mol^−1
ΔsH, enthalpy of solution ([2]; c = 2.58 × 10^−4 mol dm^−3): 6.862 kcal/mol
ΔsH, enthalpy of solution ([2]; c = 2.66 × 10^−4 mol dm^−3): 6.795 kcal/mol
ΔsH, enthalpy of solution ([2]; c = 4.49 × 10^−4 mol dm^−3): 6.74 kcal/mol
ΔsH, enthalpy of solution ([2]; c = 6.67 × 10^−4 mol dm^−3): 6.663 kcal/mol
ΔsH, enthalpy of solution ([2]; c = 7.05 × 10^−4 mol dm^−3): 6.807 kcal/mol
ΔsH, enthalpy of solution ([2]; c = 8.05 × 10^−4 mol dm^−3): 6.673 kcal/mol
ΔsH^0, standard enthalpy of solution [3]: 1.63 ± 0.048 kcal/mol
ΔsH, enthalpy of solution ([3]; c = 1.11 × 10^−3 mol dm^−3): 1.58 kcal/mol
ΔsH, enthalpy of solution ([3]; c = 1.45 × 10^−3 mol dm^−3): 1.59 kcal/mol
ΔsH, enthalpy of solution ([3]; c = 1.76 × 10^−3 mol dm^−3): 1.57 kcal/mol
ΔsH, enthalpy of solution ([3]; c = 2.07 × 10^−3 mol dm^−3): 1.59 kcal/mol
ΔsH, enthalpy of solution ([3]; c = 2.18 × 10^−3 mol dm^−3): 1.69 kcal/mol
ΔsH, enthalpy of solution ([3]; c = 2.38 × 10^−3 mol dm^−3): 1.66 kcal/mol
ΔsS^0, entropy of solution [4]: −15 J K^−1 mol^−1
pKsp [4]: 5.74
ΔsG^0, standard Gibbs energy of solution [4]: 7.82 kcal/mol
ΔtH^0, enthalpy of transfer [5]: -5.11 kcal/mol
Solvate formation [6]: not detected

From PMC9569790, “From Solution Studies of Pharmaceuticals (Aspirin and Related Compounds) to the Thermodynamics of Aspirin-β-Cyclodextrin Interaction in water and N,N-Dimethylformamide” (International Journal of Molecular Sciences, 2022)
